One may read the melting point as the temperature of the solid-liquid transition.

SMILES strings stand for the structures. “And” between values parts separate entries of the source, which are not always exact repeats. Equal values may be shown once. Where a name gives a salt, the structure may show the parent alone.

This is an account of results in patent US9464071B2 (priority 2010, dated 2016).

The molecule `COc1cc(OC)cc(N(CC2CN(Cc3ccccc3)CCO2)c2ccc3ncc(-c4cnn(C)c4)nc3c2)c1` (centres unmarked) gave a melting point of 134 °C.

Turning to `COc1cc(OC)cc(N(CC2CC2)c2ccc3ncc(-c4cnn(CC(=O)N5CCC(O)C5)c4)nc3c2)c1` (centres unmarked), the melting point is 203.4 °C and 203.41 °C.

For `COc1cc(OC)cc(N(CC2CC2)c2ccc3ncc(-c4cnn(S(C)(=O)=O)c4)nc3c2)c1`, the melting point is 207.88 °C.

On to `COc1ccc(N(CC2CC2)c2ccc3ncc(-c4cnn(C)c4)nc3c2)cc1OC`, for which the melting point turned out to be 190 °C.

With `COc1cc(OC)cc(N(CC2CC2)c2ccc3ncc(-c4cnn(CC(=O)NCCN5CCCC5)c4)nc3c2)c1`, the melting point was 162.91 °C.

Take `COc1cc(OC)cc(N(CC2CC2)c2ccc3ncc(-c4cnn(C(C)(C)C(=O)NCCO)c4)nc3c2)c1`: the melting point was determined as 149.27 °C.

Turning to `COc1cc(OC)cc(N(CC2CC2)c2ccc3ncc(-c4cnn(C(C)(C)C(=O)N5CCNCC5)c4)nc3c2)c1`, the melting point was 127.97 °C.

For `COc1cc(OC)cc(N(Cc2ccc(Cl)s2)c2ccc3ncc(-c4cnn(C)c4)nc3c2)c1`, the melting point was found to be 140.28 °C.

For `COc1cc(OC)cc(N(CC2CC2)c2ccc3ncc(-c4cnn(CCNS(=O)(=O)N(C)C)c4)nc3c2)c1`, the melting point came out at 160.27 °C.

As to `CNCCN(c1cc(OC)cc(OC)c1)c1ccc2ncc(-c3cn[nH]c3)nc2c1`, the melting point worked out at 193.59 °C.

For `CNCCN(c1cc(OC)cc(OC)c1)c1ccc2ncc(-c3cnn(CCO)c3)nc2c1`, the melting point stood at 131.93 °C.

`COc1cc(OC)cc(N(CC(=O)NCCO)c2ccc3ncc(-c4cnn(C)c4)nc3c2)c1` had a melting point of 201.43 °C.

`COc1cc(OC)cc(N(c2ccc3ncc(-c4cnn(C)c4)nc3c2)[C@H]2CC[C@@H](NC(C)C)CC2)c1` showed a melting point of 83 °C.

The molecule `COc1cc(OC)cc(N(Cc2ccc(Cl)cc2)c2ccc3ncc(-c4cnn(C)c4)nc3c2)c1` showed a melting point of 114.12 °C.

As to `COc1cc(OC)cc(N(Cc2ccccc2)c2ccc3ncc(-c4cnn(C)c4)nc3c2)c1`, the melting point was found to be 133.89 °C.

In the case of `COc1cc(OC)cc(N(c2ccc3ncc(-c4cnn(C)c4)nc3c2)[C@H]2CC[C@H](NC(C)C)CC2)c1`, the melting point was determined as 107 °C.

As for `COc1cc(OC)cc(N(CC2COCC(C)(C)N2)c2ccc3ncc(-c4cnn(C)c4)nc3c2)c1` (centres unmarked), the melting point was 157 °C.

As for `CNCCn1cc(-c2cnc3ccc(N(CC4CC4)c4cc(OC)cc(OC)c4)cc3n2)cn1`, the melting point was 103 °C and 103.14 °C.

For `COc1cc(OC)cc(N(CC#CC2CCN(C(=O)OC(C)(C)C)CC2)c2ccc3ncc(-c4cnn(C)c4)nc3c2)c1`, the melting point is 67 °C.

In turn, `COc1cc(OC)cc(N(Cc2cc3ncccc3n2C)c2ccc3ncc(-c4cnn(C)c4)nc3c2)c1` came in with a melting point of 241 °C.

`COc1cc(O)cc(N(CCCO)c2ccc3ncc(-c4cn[nH]c4)nc3c2)c1`: the melting point was 125 °C.

On to `COc1cc(OC)cc(N(CCNC(C)C)c2ccc3ncc(-c4cnn(C5CCN(C(=O)OC(C)(C)C)CC5)c4)nc3c2)c1`, for which the melting point was 66 °C.

`[2H]C([2H])([2H])Oc1cc(OC([2H])([2H])[2H])cc(N(CC#Cc2ccncc2)c2ccc3ncc(-c4cnn(C(C)C)c4)nc3c2)c1` showed a melting point of 146 °C.

Molecule `COc1cc(C#N)cc(N(CC2CC2)c2ccc3ncc(-c4cnn(C)c4)nc3c2)c1` came in with a melting point of 143 °C.

The molecule `COc1cc(OC)cc(N(CC2CNCCO2)c2ccc3ncc(-c4cnn(C)c4)nc3c2)c1` (centres unmarked) yielded a melting point of 149 °C.

Consider `COc1cc(OC)cc(N(CCNCC(O)C(F)(F)F)c2ccc3ncc(-c4cnn(C)c4)nc3c2)c1` (centres unmarked), for which the melting point is 123 °C.

Take `COc1cc(OC)cc(N(CC#Cc2cccc(N)n2)c2ccc3ncc(-c4cnn(C)c4)nc3c2)c1`: the melting point is 203 °C.

In turn, `COc1cc(O)cc(N(CCN)c2ccc3ncc(-c4cnn(C)c4)nc3c2)c1` came in with a melting point of 186 °C.

`COc1cccc(N(CCNC(C)C)c2ccc3ncc(-c4cnn(C)c4)nc3c2)c1`: the melting point was 247 °C.

`COc1cc(OC)cc(N(CCF)c2ccc3ncc(-c4cnn(C)c4)nc3c2)c1` showed a melting point of 143 °C.

The molecule `COc1cc(OC)cc(N(CCO)c2ccc3ncc(-c4cnn(C)c4CN(C)C)nc3c2)c1` displayed a melting point of 176 °C.

In the case of `COc1ccnc(C#CCN(c2ccc3ncc(-c4cnn(C)c4)nc3c2)c2c(Cl)c(OC)cc(OC)c2Cl)n1`, the melting point is 130 °C.

Consider `COc1cc(OC)cc(N(Cc2nc(OC)cc(OC)n2)c2ccc3ncc(-c4cnn(C)c4)nc3c2)c1`, for which the melting point is 127 °C.

The molecule `COC(=O)c1cccnc1C#CCN(c1cc(OC)cc(OC)c1)c1ccc2ncc(-c3cnn(C)c3)nc2c1` displayed a melting point of 156 °C.

Take `COc1ccnc(C#CCN(c2ccc3ncc(-c4cnn(C)c4)nc3c2)c2c(F)c(OC)cc(OC)c2F)n1`: the melting point amounted to 187 °C.

Take `COC(=O)c1ccnc(C#CCN(c2cc(OC)cc(OC)c2)c2ccc3ncc(-c4cnn(C)c4)nc3c2)n1`: the melting point worked out at 178 °C.

For `COc1cc(OC)cc(N(CC2CN(Cc3ccccc3)CCN2Cc2ccccc2)c2ccc3ncc(-c4cnn(C)c4)nc3c2)c1` (centres unmarked), the melting point was determined as 148 °C.

Regarding `COc1cc(OC)cc(N(CCN(Cc2ccccc2N)C(C)C)c2ccc3ncc(-c4cnn(C)c4)nc3c2)c1`, the melting point turned out to be 70 °C.

For `COc1cc(OC)cc(N(CCP(=O)(O)O)c2ccc3ncc(-c4cnn(C)c4)nc3c2)c1` (as salt: HBr), the melting point was > 260 °C.

`COc1cc(OC)cc(N(CCCN2CCC[C@@H]2CC#N)c2ccc3ncc(-c4cnn(C)c4)nc3c2)c1` (as salt: HCl) came in with a melting point of 140 °C.

`COc1cc(OC)cc(N(CCCN2CCC[C@H]2CC#N)c2ccc3ncc(-c4cnn(C)c4)nc3c2)c1` (as salt: HCl): the melting point is 135 °C.

Molecule `COc1cc(OC)cc(N(CCNC(C)C)c2ccc3ncc(-c4cnn(CC5CCOCC5)c4)nc3c2)c1` (as salt: HCl) returned a melting point of 166 °C.

`COc1cc(OC)cc(N(CCCN2CCC(F)(F)C2)c2ccc3ncc(-c4cn[nH]c4)nc3c2)c1` (as salt: HCl) registered a melting point of 215.29 °C.

For the molecule `COc1cc(OC)cc(N(CCNC(C)C)c2ccc3ncc(-c4cnn(C5CCOC5)c4)nc3c2)c1` (centres unmarked) (as salt: HCl), the melting point was 160 °C.

`COc1cc(OC)cc(N(Cc2cc[nH]n2)c2ccc3ncc(-c4cnn(C)c4)nc3c2)c1` (as salt: HCl): the melting point is 203 °C.

Turning to `COc1cc(OC)cc(N(CCCn2cc(C)nc2C)c2ccc3ncc(-c4cnn(C)c4)nc3c2)c1` (as salt: HCl), the melting point was 157 °C.

In turn, `COc1cc(OC)cc(N(CCN2CCC(CN)CC2)c2ccc3ncc(-c4cnn(C)c4)nc3c2)c1` (as salt: HCl) showed a melting point of 151 °C.

With `CCn1cc(-c2cnc3ccc(N(CCCN4CCCC4=O)c4cc(OC)cc(OC)c4)cc3n2)cn1` (as salt: HCl), the melting point is 197 °C.

As to `COc1cc(OC)cc(N(Cc2nc(C)c[nH]2)c2ccc3ncc(-c4cnn(C)c4)nc3c2)c1` (as salt: HCl), the melting point was found to be 188 °C.

`CNCC(O)CN(c1cc(OC)cc(OC)c1)c1ccc2ncc(-c3cnn(C)c3)nc2c1` (centres unmarked) (as salt: HCl) registered a melting point of 224 °C.

`COc1cc(OC)cc(N(CCn2cccc2)c2ccc3ncc(-c4cnn(C)c4)nc3c2)c1` (as salt: HCl) came in with a melting point of 130 °C.

In the case of `COc1cc(OC)cc(N(CCN2C[C@H](C)C[C@@H](C)C2)c2ccc3ncc(-c4cnn(C)c4)nc3c2)c1` (as salt: HCl) [Compound 40], the melting point amounted to 80 °C.

In turn, `COc1cc(OCCO)cc(N(CC2CC2)c2ccc3ncc(-c4cnn(CCO)c4)nc3c2)c1` (as salt: HCl) [Compound 131, 2-[4-(7-{(Cyclopropylmethyl)[3-(2-hydroxyethoxy)-5-methoxyphenyl]amino}quinoxalin-2-yl)-1H-pyrazol-1-yl]ethanol] registered a melting point of 183.2 °C.

For the molecule `CNC(=O)Cn1cc(-c2cnc3ccc(N(CCNC(C)C)c4cc(OC)cc(OC)c4)cc3n2)cn1` (as salt: HCl) [Compound 134, 2-(4-{7-[(3,5-Dimethoxyphenyl){2-[(1-methylethyl)amino]ethyl}amino]quinoxalin-2-yl}-1H-pyrazol-1-yl)-N-methylacetamide], the melting point amounted to 184 °C.

`CCn1cc(-c2cnc3ccc(N(CCNC(C)C)c4cc(OC)cc(OC)c4)cc3n2)cn1` (as salt: HCl) [Compound 135, N-(3,5-Dimethoxyphenyl)-N-[3-(1-ethyl-1H-pyrazol-4-yl)quinoxalin-6-yl]-N′-(1-methylethyl)ethane-1,2-diamine] had a melting point of 194 °C.

Regarding `COc1cc(OC)cc(N(CCN2C[C@@H]3C[C@H]2CN3)c2ccc3ncc(-c4cnn(C)c4)nc3c2)c1` (as salt: HCl) [Compound 621], the melting point is > 260 °C.

The molecule `COc1cc(OC)cc(N(CCNC(C)C)c2ccc3ncc(-c4c(C)nn(C)c4C)nc3c2)c1` (as salt: HCl) [Compound 623] showed a melting point of 133 °C.

`COc1cc(OC)cc(N(CCNC(C)C)c2ccc3ncc(-c4cnn(CCCN5CCN(CCO)CC5)c4)nc3c2)c1` (as salt: HCl) [Compound 644] yielded a melting point of 96 °C.

In turn, `COCC(O)CN(c1cc(OC)cc(OC)c1)c1ccc2ncc(-c3cnn(C(C)C)c3)nc2c1` (centres unmarked) (as salt: hydrochloric acid salt) showed a melting point of 110 °C.

For the molecule `COCC(O)CN(c1cc(OC)cc(OC)c1)c1ccc2ncc(-c3cnn(C(C)C)c3)nc2c1` (single isomer, unassigned) (as salt: HCl), the melting point turned out to be 95 °C.

As for `COc1cc(OC)cc(N(C[C@@H](O)CO)c2ccc3ncc(-c4cnn(C)c4)nc3c2)c1` (single isomer, unassigned) [Compound 97], the melting point is 187.39 °C and 188 °C.

For `COc1cc(OC)cc(N(C[C@H](O)CO)c2ccc3ncc(-c4cnn(C)c4)nc3c2)c1` (single isomer, unassigned) [Compound 98], the melting point came to 186.98 °C.
